Consider 27 compounds from US9206156B2, “Substituted indole derivatives” (GRÜNENTHAL GMBH, priority 2008, dated 2015).

One experiment deals with T1, ORL1 receptor (Homo sapiens, UniProt P41146).
T1 construct: expressed in transfected cells; host or cells: CHO (recombinant CHO-ORL1 cells), membranes
Nature of the experiment: ORL1 receptor binding assay with 3H-nociceptin/orphanin FQ (WGA-SPA beads). As to conditions: c=1 μM test substance; 0.5 nM 3H-nociceptin/orphanin FQ; membranes of recombinant CHO-ORL1 cells. The gist of the method: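 Affinity given as nanomolar Ki or as % inhibition at c=1 μM. Membranes of CHO cells expressing recombinant ORL1 (20 μg protein) were incubated one hour at room temperature with 0.5 nM 3H-nociceptin/orphanin FQ in Hepes 50 mM, pH 7.4, plus MgCl2 and EDTA; bound ligand detected by SPA bead scintillation counting.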

The target of another experiment is T2, human μ-opiate receptor (Homo sapiens, UniProt P35372).
T2 construct: purchased NEN, Zaventem, Belgium RB-HOM; host or cells: CHO-K1 cells (membrane preparation)
T2 sequence (P35372 whole entry): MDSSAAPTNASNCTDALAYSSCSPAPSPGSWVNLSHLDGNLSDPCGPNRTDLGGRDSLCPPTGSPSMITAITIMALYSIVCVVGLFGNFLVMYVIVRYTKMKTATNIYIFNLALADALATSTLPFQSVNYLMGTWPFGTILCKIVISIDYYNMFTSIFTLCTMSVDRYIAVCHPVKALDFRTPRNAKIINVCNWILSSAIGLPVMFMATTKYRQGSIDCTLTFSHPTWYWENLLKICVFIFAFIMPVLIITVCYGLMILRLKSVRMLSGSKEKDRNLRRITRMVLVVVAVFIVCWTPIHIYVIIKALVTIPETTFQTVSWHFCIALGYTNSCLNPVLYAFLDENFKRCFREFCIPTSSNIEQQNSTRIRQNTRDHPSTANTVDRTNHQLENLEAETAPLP
Nature of the experiment: μ-opiate receptor binding assay with [3H] naloxone (WGA-SPA beads). The conditions noted are these: 1 μmol/l test substance, 1 nmol/l [3H] naloxone, CHO-K1 cell membranes expressing human μ-opiate receptor. The gist of the method: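 Scintillation proximity readout: [3H]naloxone (1 nmol/l) displacement measured after 90 min, room temperature, on human μ-receptor CHO-K1 membranes in Tris-HCl/azide/BSA buffer; 25 μmol/l naloxone defined non-specific binding. Values are % specific-binding inhibition at 1 μmol/l, or Ki from IC50 (Cheng-Prusoff).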

T1 sequence (P41146 whole entry): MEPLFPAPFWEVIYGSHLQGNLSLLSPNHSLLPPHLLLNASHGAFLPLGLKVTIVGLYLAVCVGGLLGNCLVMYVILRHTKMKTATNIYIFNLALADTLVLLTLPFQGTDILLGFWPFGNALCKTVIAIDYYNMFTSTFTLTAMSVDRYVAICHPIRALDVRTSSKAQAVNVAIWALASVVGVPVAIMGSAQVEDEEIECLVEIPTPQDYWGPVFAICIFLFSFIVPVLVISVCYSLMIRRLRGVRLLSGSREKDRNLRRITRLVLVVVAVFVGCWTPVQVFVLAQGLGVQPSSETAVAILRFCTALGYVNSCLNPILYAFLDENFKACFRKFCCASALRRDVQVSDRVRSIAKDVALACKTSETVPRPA

For the compound `CN(C)C1(c2ccccc2)CCN(C(=O)C2CN(Cc3ccc4[nH]ccc4c3)c3ccccc32)CC1` (stereo not drawn) [Example 166, (1-((1H-indol-5-yl)methyl)indolin-3-yl)(4-(dimethylamino)-4-phenylpiperidin-1-yl)methanone], the inhibition – broadly, how much of the control response was suppressed – at 1 µM on ORL1 receptor worked out at 40%; at human μ-opiate receptor it was 77%.

For the compound `Cc1[nH]c2ccccc2c1CNCCC(=O)N1CCC(c2ccccc2)(N(C)C)CC1` [Example 167, 1-(4-(dimethylamino)-4-phenylpiperidin-1-yl)-3-((2-methyl-1H-indol-3-yl)methylamino)propan-1-one], the inhibition at 1 µM on ORL1 receptor is 65%; on human μ-opiate receptor it was 86%.

As to `Cc1[nH]c2ccccc2c1CNC(CC(=O)N1CCC(c2cccs2)(N(C)C)CC1)c1ccccc1` (stereo not drawn) [Example 168, 1-(4-(dimethylamino)-4-(thiophen-2-yl)piperidin-1-yl)-3-((2-methyl-1H-indol-3-yl)methylamino)-3-phenylpropan-1-one], the inhibition at 1 µM came out at 73% at ORL1 receptor and 92% at human μ-opiate receptor.

Consider `CN(C)C1(c2cccs2)CCN(C(=O)CC(NCc2ccc3cc[nH]c3c2)c2ccccc2)CC1` (stereo not drawn) [Example 169, 3-((1H-indol-6-yl)methylamino)-1-(4-(dimethylamino)-4-(thiophen-2-yl)piperidin-1-yl)-3-phenylpropan-1-one], for which the inhibition at 1 µM was determined as 54% at ORL1 receptor and 91% at human μ-opiate receptor.

Regarding `CN(C)C1(c2ccccc2)CCN(C(=O)C2CN(Cc3ccc4cc[nH]c4c3)c3ccccc32)CC1` (stereo not drawn) [Example 170, (1-((1H-indol-6-yl)methyl)indolin-3-yl)(4-(dimethylamino)-4-phenylpiperidin-1-yl)methanone], the inhibition at 1 µM on ORL1 receptor came to 38%; on human μ-opiate receptor, 80%.

Consider `CN(C)C1(c2ccccc2)CCN(C(=O)CCNCc2cccc3cc[nH]c23)CC1` [Example 171, 3-((1H-indol-7-yl)methylamino)-1-(4-(dimethylamino)-4-phenylpiperidin-1-yl)propan-1-one], for which the figures for the inhibition at 1 µM on ORL1 receptor and at human μ-opiate receptor were 73% and 97%, respectively.

Turning to `CN(C)C1(c2cccs2)CCN(C(=O)CNCc2cccc3cc[nH]c23)CC1` [Example 172, 2-((1H-indol-7-yl)methylamino)-1-(4-(dimethylamino)-4-(thiophen-2-yl)piperidin-1-yl)ethanone], the inhibition at 1 µM on ORL1 receptor was found to be 67%; at human μ-opiate receptor, 96%.

For `CN(C)C1(c2cccs2)CCN(C(=O)CC(NCc2cccc3cc[nH]c23)c2ccccc2)CC1` (stereo not drawn) [Example 173, 3-((1H-indol-7-yl)methylamino)-1-(4-(dimethylamino)-4-(thiophen-2-yl)piperidin-1-yl)-3-phenylpropan-1-one], the inhibition at 1 µM at ORL1 receptor is 74%; on human μ-opiate receptor it was 96%.

For the compound `CN(C)C1(c2cccs2)CCN(C(=O)CC(NCc2cccc3[nH]ccc23)c2ccccc2)CC1` (stereo not drawn) [Example 174, 3-((1H-indol-4-yl)methylamino)-1-(4-(dimethylamino)-4-(thiophen-2-yl)piperidin-1-yl)-3-phenylpropan-1-one], the inhibition at 1 µM was 68% on ORL1 receptor and 92% at human μ-opiate receptor.

Regarding `CN(C)C1(c2ccccc2)CCN(C(=O)C2CN(Cc3cccc4[nH]ccc34)c3ccccc32)CC1` (stereo not drawn) [Example 175], on ORL1 receptor, the “% Inhibition (ORL1) at 1 μM” value is recorded as 10%. On human μ-opiate receptor, the “% Inhibition (μ) at 1 μM” value worked out at 70%.

Regarding `COc1ccc2c(CN3CCCC(C(=O)N4CCC(c5ccccc5)(N(C)C)CC4)C3)c(C)n(C)c2c1` (stereo not drawn) [Example 176, (4-(dimethylamino)-4-phenylpiperidin-1-yl)(1-((6-methoxy-1,2-dimethyl-1H-indol-3-yl)methyl)piperidin-3-yl)methanone], the inhibition at 1 µM at ORL1 receptor worked out at 53%; on human μ-opiate receptor, 61%.

As to `CN(C)C1(c2ccccc2)CCN(C(=O)C2CCCN(Cc3c(-c4ccc(F)cc4)[nH]c4ccccc34)C2)CC1` (stereo not drawn) [Example 177, (4-(dimethylamino)-4-phenylpiperidin-1-yl)(1-((2-(4-fluorophenyl)-1H-indol-3-yl)methyl)piperidin-3-yl)methanone], the inhibition at 1 µM on ORL1 receptor was 51%; at human μ-opiate receptor it was 94%.

Turning to `CN(C)C1(c2cccs2)CCN(CCNCc2c[nH]c3ccc(Cl)cc23)CC1` [Example 178, 1-(2-((5-chloro-1H-indol-3-yl)methylamino)ethyl)-N,N-dimethyl-4-(thiophen-2-yl)piperidin-4-amine], the results for the inhibition at 1 µM at ORL1 receptor and on human μ-opiate receptor were 99% and 100%, respectively.

Take `CN(C)C1(c2cccs2)CCN(CCNCc2c[nH]c3ccccc23)CC1` [Example 179, 1-(2-((1H-indol-3-yl)methylamino)ethyl)-N,N-dimethyl-4-(thiophen-2-yl)piperidin-4-amine]: the inhibition at 1 µM was 97% at ORL1 receptor and 76% at human μ-opiate receptor.

For `CC(C)c1ccc2c(CN(C)CCN3CCC(c4ccccc4)(N(C)C)CC3)c[nH]c2c1` [Example 180, 1-(2-(((6-isopropyl-1H-indol-3-yl)methyl)(methyl)amino)ethyl)-N,N-dimethyl-4-phenylpiperidin-4-amine], the results for the inhibition at 1 µM at ORL1 receptor and at human μ-opiate receptor were 96% and 95%, respectively.

As to `CN(CCN1CCC(c2ccccc2)(N(C)C)CC1)Cc1ccc2cc[nH]c2c1` [Example 181, 1-(2-(((1H-indol-6-yl)methyl)(methyl)amino)ethyl)-N,N-dimethyl-4-phenylpiperidin-4-amine], the inhibition at 1 µM at ORL1 receptor came to 96%; on human μ-opiate receptor, 34%.

With `CN(CCN1CCC(c2ccccc2)(N(C)C)CC1)Cc1c[nH]c2ccc(Cl)cc12` [Example 182, 1-(2-(((5-chloro-1H-indol-3-yl)methyl)(methy)amino)ethyl)-N,N-dimethyl-4-phenylpiperidin-4-amine], the “% Inhibition (ORL1) at 1 μM” value on ORL1 receptor is given as 95%. In addition, the “% Inhibition (μ) at 1 μM” value at human μ-opiate receptor (1 µM) is 101%.

Turning to `CN(CCN1CCC(c2ccccc2)(N(C)C)CC1)Cc1c[nH]c2ccc(Cl)cc12` [Example 183, 1-(2-(((5-chloro-1H-indol-3-yl)methyl)(methy)amino)ethyl)-N,N-dimethyl-4-phenylpiperidin-4-amine], on ORL1 receptor, the “% Inhibition (ORL1) at 1 μM” value came to 95%. Besides, the “% Inhibition (μ) at 1 μM” value at human μ-opiate receptor (1 µM) is reported as 100%.

`CN(CCN1CCC(c2ccccc2)(N(C)C)CC1)Cc1ccc2cc[nH]c2c1` [Example 184, 1-(2-(((1H-indol-6-yl)methyl)(methy)amino)ethyl)-N,N-dimethyl-4-phenylpiperidin-4-amine]: on ORL1 receptor, the “% Inhibition (ORL1) at 1 μM” value is on record as 95%. For the same compound, on human μ-opiate receptor (1 µM), the “% Inhibition (μ) at 1 μM” value is recorded as 99%.

As for `CN(CCN1CCC(c2ccccc2)(N(C)C)CC1)Cc1c[nH]c2ccc(Br)cc12` [Example 185, 1-(2-(((5-bromo-1H-indol-3-yl)methyl)(methyl)amino)ethyl)-N,N-dimethyl-4-phenylpiperidin-4-amine], the inhibition at 1 µM worked out at 91% at ORL1 receptor and 95% at human μ-opiate receptor.

`CN(CCN1CCC(c2ccccc2)(N(C)C)CC1)Cc1c[nH]c2ccccc12` [Example 186, 1-(2-(((1H-indol-3-yl)methyl)(methy)amino)ethyl)-N,N-dimethyl-4-phenylpiperidin-4-amine]: at ORL1 receptor, the “% Inhibition (ORL1) at 1 μM” value is 88%. Besides, on human μ-opiate receptor (1 µM), the “% Inhibition (μ) at 1 μM” value stood at 102%.

Consider `CN(CCN1CCC(c2ccccc2)(N(C)C)CC1)Cc1c[nH]c2ccccc12` [Example 187, 1-(2-(((1H-indol-3-yl)methyl)(methy)amino)ethyl)-N,N-dimethyl-4-phenylpiperidin-4-amine], for which the “% Inhibition (ORL1) at 1 μM” value at ORL1 receptor is recorded as 87%. Moreover, on human μ-opiate receptor (1 µM), the “% Inhibition (μ) at 1 μM” value came to 100%.

On to `COc1ccc2[nH]cc(CNCCN3CCC(c4cccs4)(N(C)C)CC3)c2c1` [Example 188, 1-(2-((5-methoxy-1H-indol-3-yl)methylamino)ethyl)-N,N-dimethyl-4-(thiophen-2-yl)piperidin-4-amine], for which the figures for the inhibition at 1 µM at ORL1 receptor and on human μ-opiate receptor were 85% and 99%, respectively.

Consider `Cc1c(CN(C)CCN2CCC(c3ccccc3)(N(C)C)CC2)c2ccccc2n1C` [Example 189, 1-(2-(((1,2-dimethyl-1H-indol-3-yl)methyl)(methyl)amino)ethyl)-N,N-dimethyl-4-phenylpiperidin-4-amine], for which the inhibition at 1 µM at ORL1 receptor came out at 83%; at human μ-opiate receptor it was 100%.

`COc1ccc2[nH]cc(CN(C)CCN3CCC(c4ccccc4)(N(C)C)CC3)c2c1` [Example 190, 1-(2-(((5-methoxy-1H-indol-3-yl)methyl)(methyl)amino)ethyl)-N,N-dimethyl-4-phenylpiperidin-4-amine]: the figures for the inhibition at 1 µM at ORL1 receptor and at human μ-opiate receptor were 80% and 97%, respectively.

As to `COc1ccc2[nH]cc(CN(C)CCN3CCC(c4ccccc4)(N(C)C)CC3)c2c1` [Example 191, 1-(2-(((5-methoxy-1H-indol-3-yl)methyl)(methyl)amino)ethyl)-N,N-dimethyl-4-phenylpiperidin-4-amine], the “% Inhibition (ORL1) at 1 μM” value at ORL1 receptor is given as 80%. Besides, on human μ-opiate receptor (1 µM), the “% Inhibition (μ) at 1 μM” value is 96%.

Regarding `COc1ccc2[nH]cc(CN(C)CCN3CCC(c4ccccc4)(N(C)C)CC3)c2c1` [Example 192, 1-(2-(((5-methoxy-1H-indol-3-yl)methyl)(methyl)amino)ethyl)-N,N-dimethyl-4-phenylpiperidin-4-amine], the “% Inhibition (ORL1) at 1 μM” value at ORL1 receptor came out at 76%. In addition, the “% Inhibition (μ) at 1 μM” value on human μ-opiate receptor (1 µM) came to 96%.
